Results published in US20260078120A1, “SUBSTITUTED PYRIDOPYRIMIDINONES” (MIRATI THERAPEUTICS, INC., priority 2022, published 2026).

Experiments:
[1] = test system: SKBR3 (PI3Kα wild type) cells; assay: CellTiter-Glo 2.0 luminescent cell viability assay, 72 hours, SKBR3 cells; assay type: cell-based; conditions: Homo sapiens, SK-BR-3, 72 h, SKBR3 (PI3Kα wild type) cells, CellTiter-Glo, approximately 72 hours; read-out: SKBR3 (WT) Viability IC50
Method: (§1) The ability of a compound of Formula (I) to decrease the viability of cells was measured using CellTiter-Glo 2.0 (CTG) Luminescent Cell Viability Assay (#G9241) obtained from Promega (Madison, WI).
To prepare assay plates for viability assays, cells were trypsinized, resuspended in fresh media, and viable cells were counted utilizing trypan blue exclusion.
(§2) Assay day 1, cells were dosed using an Echo Liquid Handler (Beckman Coulter) with compounds at a 10 um starting concentration and serially diluted (1:4) for a total of 10 concentrations. Cells were incubated for approximately 72 hours with the compounds (solubilized in DMSO) at 37° C. After 72 hours of treatment, cell plates were equilibrated to room temperature before adding 15 μl of CTG to each well, plates were then covered in aluminum foil to protect from light, incubated at room temperature for 30 minutes on a microtiter plate shaker, and luminescence readings were collected using a CLARIOstar microplate reader (BMG Labtech, Germany). Percent of vehicle control values were plotted as log (inhibitor) vs. response-Variable slope (four parameters) for curve fitting and IC50 values were determined using XLfit.

[2] = test system: T47D (PI3Kα H1047R mutant) cells; assay: CellTiter-Glo 2.0 luminescent cell viability assay, 72 hours, T47D cells; assay type: cell-based; conditions: Homo sapiens, T47D, 72 h, T47D (PI3Kα H1047R mutant) cells, CellTiter-Glo, approximately 72 hours; read-out: T47D (H1047R mutant) Viability IC50
Method: This Example illustrates that exemplary compounds of the present invention decrease the viability of cells.
as §1
To prepare assay plates for viability assays, cells were trypsinized, resuspended in fresh media, and viable cells were counted utilizing trypan blue exclusion. T47D, SKBR3, or MKN1 cells were seeded at 1000 cells in 30 μl per well in a solid white flat bottom 384 cell culture plate (Perkin Elmer #6007680) and incubated at 37° C. overnight.
as §2

What does the source list for `Cc1cc([C@@H](C)Nc2ccccc2C(=O)O)c2nc(N3CC4CC(C)(C)C4C3)c(C)c(=O)n2c1` (stereo partly drawn) [Example 11-24, 2-(((1R)-1-(2-(6,6-dimethyl-3-azabicyclo[3.2.0]heptan-3-yl)-3,7-dimethyl-4-oxo-4H-pyrido[1,2-a]pyrimidin-9-yl)ethyl)amino)benzoic acid]?
IC50 [1]: > 10000 nM; IC50 [2]: 123 nM

Which results are given for `Cc1cc([C@@H](C)Nc2ccccc2C(=O)O)c2nc(N3CC4(C3)CC3(CCC3)C4)c(C)c(=O)n2c1` [Example 11-26, (R)-2-((1-(2-(2-azadispiro[3.1.3^6.1^4]decan-2-yl)-3,7-dimethyl-4-oxo-4H-pyrido[1,2-a]pyrimidin-9-yl)ethyl)amino)benzoic acid]?
IC50 [1]: > 10000 nM; IC50 [2]: 216 nM

What does the source list for `Cc1cc([C@@H](C)Nc2ccccc2C(=O)O)c2nc(N3CC4CCCCCCC4C3)c(C)c(=O)n2c1` (stereo partly drawn) [Example 11-27, 2-(((1R)-1-(2-(decahydro-2H-cycloocta[c]pyrrol-2-yl)-3,7-dimethyl-4-oxo-4H-pyrido[1,2-a]pyrimidin-9-yl)ethyl)amino)benzoic acid]?
IC50 [1]: > 10000 nM; IC50 [2]: 1600 nM

Which results are given for `Cc1cc([C@@H](C)Nc2ccccc2C(=O)O)c2nc(N3CC(O)C4(CCC4)C3)c(C)c(=O)n2c1` (stereo partly drawn) [Example 11-28, 2-(((1R)-1-(2-(8-hydroxy-6-azaspiro[3.4]octan-6-yl)-3,7-dimethyl-4-oxo-4H-pyrido[1,2-a]pyrimidin-9-yl)ethyl)amino)benzoic acid]?
IC50 [1]: > 10000 nM; IC50 [2]: 187 nM

What does the source list for `Cc1cc([C@@H](C)Nc2ccccc2C(=O)O)c2nc(N3C4CC5CC(C4)CC3C5)c(C)c(=O)n2c1` [Example 11-29, (R)-2-((1-(2-(2-azaadamantan-2-yl)-3,7-dimethyl-4-oxo-4H-pyrido[1,2-a]pyrimidin-9-yl)ethyl)amino)benzoic acid]?
IC50 [1]: > 10000 nM; IC50 [2]: 244 nM

Which results are given for `Cc1cc([C@@H](C)Nc2ccccc2C(=O)O)c2nc(N3CC4CCC3CC4O)c(C)c(=O)n2c1` (stereo partly drawn) [Example 11-30, 2-(((1R)-1-(2-(5-hydroxy-2-azabicyclo[2.2.2]octan-2-yl)-3,7-dimethyl-4-oxo-4H-pyrido[1,2-a]pyrimidin-9-yl)ethyl)amino)benzoic acid]?
IC50 [1]: > 10000 nM; IC50 [2]: 401 nM

How did the IC50 [1] turn out when `Cc1cc([C@@H](C)Nc2ccccc2C(=O)O)c2nc(N3CC(O)C4CCCCC43)c(C)c(=O)n2c1` (stereo partly drawn) [Example 11-31, 2-(((1R)-1-(2-(3-hydroxyoctahydro-1H-indol-1-yl)-3,7-dimethyl-4-oxo-4H-pyrido[1,2-a]pyrimidin-9-yl)ethyl)amino)benzoic acid] was run?
The IC50 was > 10000 nM.

What about the IC50 [2] of the same compound?
Its IC50 is 328 nM.

For `Cc1cc([C@@H](C)Nc2ccccc2C(=O)O)c2nc(N3CC4CC3CC4c3ccccc3)c(C)c(=O)n2c1` (stereo partly drawn) [Example 11-32, 2-(((1R)-1-(3,7-dimethyl-4-oxo-2-(5-phenyl-2-azabicyclo[2.2.1]heptan-2-yl)-4H-pyrido[1,2-a]pyrimidin-9-yl)ethyl)amino)benzoic acid], which IC50 [1] is on record?
Its IC50 is > 10000 nM.

What about the IC50 [2] of the same compound?
Its IC50 is 303 nM.

What does the source list for `Cc1cc([C@@H](C)Nc2ccccc2C(=O)O)c2nc(N3CC4C5CCC5C4C3)c(C)c(=O)n2c1` (stereo partly drawn) [Example 11-33, 2-(((1R)-1-(3,7-dimethyl-4-oxo-2-(8-azatricyclo[4.3.0.0^2,5]nonan-8-yl)-4H-pyrido[1,2-a]pyrimidin-9-yl)ethyl)amino)benzoic acid]?
IC50 [1]: > 10000 nM; IC50 [2]: 310 nM

What does the source list for `Cc1cc([C@@H](C)Nc2ccccc2C(=O)O)c2nc(N3CC4CC(C3)C4(C)O)c(C)c(=O)n2c1` (stereo partly drawn) [Example 11-34, 2-(((1R)-1-(2-(6-hydroxy-6-methyl-3-azabicyclo[3.1.1]heptan-3-yl)-3,7-dimethyl-4-oxo-4H-pyrido[1,2-a]pyrimidin-9-yl)ethyl)amino)benzoic acid]?
IC50 [1]: > 10000 nM; IC50 [2]: 215 nM

Which results are given for `Cc1cc([C@@H](C)Nc2ccccc2C(=O)O)c2nc(N3CC4C5CCC(C5O)C4C3)c(C)c(=O)n2c1` (stereo partly drawn) [Example 11-35, 2-(((1R)-1-(2-(8-hydroxyoctahydro-2H-4,7-methanoisoindol-2-yl)-3,7-dimethyl-4-oxo-4H-pyrido[1,2-a]pyrimidin-9-yl)ethyl)amino)benzoic acid]?
IC50 [1]: > 10000 nM; IC50 [2]: 136 nM
